This passage reports MIC results from DBAASP.

Holding throughout (experiment): ≥ marks a high value that may be exact or a test limit, other limits are often not marked, values filed in µg/mL are converted to µM
Assay [1] deals with Klebsiella pneumoniae.
The test system of assay [2] is Acinetobacter baumannii ATCC 19606.
Assay [3] has as its system Klebsiella pneumoniae ATCC BAA-2146.
For assay [4], the system named is Candida albicans ATCC 90028.
Assay [5] relates to Cryptococcus neoformans ATCC 208821.
Assay [6] has as its system Pseudomonas aeruginosa.
Assay [7] relates to Pseudomonas aeruginosa ATCC 27853.
Assay [8] relates to Klebsiella pneumoniae ATCC 700603.
The subject of assay [9] is Acinetobacter baumannii.
The test system of assay [10] is Bacillus subtilis ATCC 6051.
For assay [11], the system named is Escherichia coli ATCC 25922.
Assay [12] relates to Klebsiella pneumoniae ATCC 13883.
Assay [13] deals with Staphylococcus aureus ATCC 43300.
The subject of assay [14] is Pseudomonas aeruginosa KCTC 1637.
For assay [15], the system named is Enterococcus faecalis.
In assay [16] the test system is Staphylococcus epidermidis KCTC 1917.
Assay [17] relates to Salmonella typhimurium KCTC 1926.
Assay [18] deals with Staphylococcus aureus MR.
Assay [19] concerns Enterococcus faecium.
Assay [20] has as its system Bacillus subtilis KCTC 3068.
Assay [21] has as its system Enterococcus faecalis VR.
For assay [22], the system named is Staphylococcus aureus KCTC 1621.
Assay [23] deals with Escherichia coli KCTC 1682.
Assay [24] relates to Enterococcus faecium VR.
Assay [25] deals with Candida parapsilosis ATCC 22019.
The test system of assay [26] is Candida krusei ATCC 6258.
Assay [27] deals with Candida albicans SC5314.

In brackets after ≈: the same amount, converted by molar mass. Bounds are passed on as bounds.

On to `CC[C@H](C)[C@H](NC(=O)CNC(=O)[C@H](CCCNC(=N)N)NC(=O)[C@H](Cc1ccc(O)cc1)NC(=O)[C@H](C)NC(=O)[C@@H](NC(=O)[C@H](CCCNC(=N)N)NC(=O)[C@H](Cc1ccccc1)NC(=O)[C@H](C)NC(=O)[C@H](Cc1c[nH]c2ccccc12)NC(=O)[C@@H](N)CCCCN)C(C)C)C(=O)N[C@@H](C)C(=O)N[C@@H](Cc1ccc(O)cc1)C(=O)N[C@@H](CCCNC(=N)N)C(=O)N[C@@H](CCCNC(=N)N)C(=O)N[C@@H](C)C(=O)N[C@@H](CCCNC(=N)N)C(N)=O` [KWAFRVAYRGIAYRRAR], for which the MIC in [1] was above 7.47 µM; in assay [2], 1.87 µM (≈ 4 µg/mL); in assay [3], 7.47 µM (≈ 16 µg/mL); in assay [4], 7.47 µM (≈ 16 µg/mL); in assay [5] it was 0.467 µM (≈ 1 µg/mL); in assay [6], above 7.47 µM. In addition, the MIC in assay [7] is above 7.47 µM; in assay [8], 7.47 µM (≈ 16 µg/mL); in [9] it was 1.87 µM (≈ 4 µg/mL); in assay [10], 0.467 µM (≈ 1 µg/mL); in [11] it was 3.74 µM (≈ 8 µg/mL); in assay [12], 7.47 µM (≈ 16 µg/mL). In assay [13], this compound returned an MIC of 7.47 µM (≈ 16 µg/mL).
Turning to `CC[C@H](C)[C@@H]1NC(=O)CNC(=O)[C@H](CCCN=C(N)N)NC(=O)[C@H](Cc2ccc(O)cc2)NC(=O)[C@@H]2CSSC[C@H](NC1=O)C(=O)N[C@@H](C)C(=O)N[C@@H](CCCN=C(N)N)C(=O)N[C@@H](CCCN=C(N)N)C(=O)N[C@H](C(=O)N[C@@H](CCCN=C(N)N)C(=O)O)CSSC[C@H](NC(=O)[C@H](Cc1c[nH]c3ccccc13)NC(=O)[C@@H](N)CCCCN)C(=O)N[C@@H](Cc1ccccc1)C(=O)N[C@@H](CCCN=C(N)N)C(=O)N[C@@H](C(C)C)C(=O)N2` [KWCFRVCYRGICARRCR], the MIC in assay [1] is 3.68 µM (≈ 7.99 µg/mL); in assay [2] it was 0.0574 µM (≈ 0.125 µg/mL); in assay [3], 0.23 µM (≈ 0.499 µg/mL); in assay [4], 1.84 µM (≈ 3.99 µg/mL); in assay [5], 0.23 µM (≈ 0.499 µg/mL); in assay [6] it was 0.919 µM (≈ 2 µg/mL). In addition, the MIC stood at 0.23 µM (≈ 0.499 µg/mL) in [7]; 0.23 µM (≈ 0.499 µg/mL) in assay [8]; 0.115 µM (≈ 0.25 µg/mL) in assay [9]; 0.0276 µM (≈ 0.06 µg/mL) in assay [10]; 0.115 µM (≈ 0.25 µg/mL) in [11]; 0.115 µM (≈ 0.25 µg/mL) in assay [12]. This compound also came in with an MIC in assay [13] of 1.84 µM (≈ 3.99 µg/mL).
With `CC[C@H](C)[C@H](NC(=O)[C@H](C)N)C(=O)N[C@@H](CCCN=C(N)N)C(=O)N[C@@H](CS)C(=O)N[C@@H](CC(C)C)C(=O)N[C@@H](C)C(=O)N[C@@H](CCCCN)C(=O)N[C@@H](CCCN=C(N)N)C(=O)N[C@@H](CCCN=C(N)N)C(=O)N[C@@H](CCCCN)C(N)=O` [AIRCLAKRRK], the MIC in [14] is 7.5 µM (≈ 9.1 µg/mL); in assay [15] it was 30 µM (≈ 36.4 µg/mL); in [16], 7.5 µM (≈ 9.1 µg/mL); in assay [17], 7.5 µM (≈ 9.1 µg/mL); in assay [18] it was 7.5 µM (≈ 9.1 µg/mL); in assay [19], 3.8 µM (≈ 4.61 µg/mL). In addition, the MIC in assay [20] was 7.5 µM (≈ 9.1 µg/mL); in assay [21], 30 µM (≈ 36.4 µg/mL); in assay [22], 7.5 µM (≈ 9.1 µg/mL); in [23], 30 µM (≈ 36.4 µg/mL); in [24], 15 µM (≈ 18.2 µg/mL).
As for `CC[C@H](C)[C@H](NC(=O)[C@H](CS)NC(=O)[C@H](CC(N)=O)NC(=O)[C@H](C)NC(=O)[C@H](C)N)C(=O)N[C@H](C(=O)N[C@@H](CC(C)C)C(=O)NCC(=O)N[C@@H](CCCCN)C(=O)N[C@@H](C)C(N)=O)[C@@H](C)O` [AANCITLGKA], the MIC in assay [14], in assay [15], in [16], in assay [17], in [18] and in [19] was 30 µM (≈ 28.8 µg/mL) in each case. Also, the MIC in [20], in assay [21], in assay [22], in [23] and in assay [24] was 30 µM (≈ 28.8 µg/mL) in each case.
Consider `CC[C@H](C)[C@@H]1NC(=O)CNC(=O)[C@H](CCCN=C(N)N)NC(=O)[C@H](Cc2ccc(O)cc2)NC(=O)[C@@H]2CSSC[C@H](NC1=O)C(=O)N[C@@H](Cc1ccc(O)cc1)C(=O)N[C@@H](CCCN=C(N)N)C(=O)N[C@@H](CCCN=C(N)N)C(=O)N[C@H](C(=O)N[C@@H](CCCN=C(N)N)C(=O)O)CSSC[C@H](NC(=O)[C@H](Cc1c[nH]c3ccccc13)NC(=O)[C@@H](N)CCCN=C(N)N)C(=O)N[C@@H](Cc1ccccc1)C(=O)N[C@@H](CCCN=C(N)N)C(=O)N[C@@H](C(C)C)C(=O)N2` [RWCFRVCYRGICYRRCR], for which the MIC in assay [1] turned out to be 1.74 µM (≈ 3.99 µg/mL); in [2] it was 0.0544 µM (≈ 0.125 µg/mL); in assay [3] it was 0.109 µM (≈ 0.249 µg/mL); in [4], 1.74 µM (≈ 3.99 µg/mL); in assay [5], 0.109 µM (≈ 0.249 µg/mL); in assay [6], 0.218 µM (≈ 0.499 µg/mL). Further, the MIC was 0.109 µM (≈ 0.249 µg/mL) in [7]; 0.218 µM (≈ 0.499 µg/mL) in assay [8]; 0.109 µM (≈ 0.249 µg/mL) in assay [9]; 0.0544 µM (≈ 0.125 µg/mL) in assay [10]; 0.0544 µM (≈ 0.125 µg/mL) in [11]; 0.0544 µM (≈ 0.125 µg/mL) in assay [12]. Besides, the MIC in assay [13] turned out to be 0.435 µM (≈ 0.998 µg/mL).
Take `CC[C@H](C)[C@H](NC(=O)[C@H](CS)NC(=O)[C@H](Cc1cnc[nH]1)NC(=O)[C@H](C)NC(=O)[C@H](C)N)C(=O)N[C@@H](C)C(=O)N[C@@H](CC(C)C)C(=O)N[C@@H](CCCN=C(N)N)C(=O)N[C@@H](CCCCN)C(=O)NCC(=O)N[C@@H](Cc1ccc(O)cc1)C(=O)N[C@@H](CCCCN)C(N)=O` [AAHCIALRKGYK]: the MIC in [14] was 30 µM (≈ 39.9 µg/mL); in assay [15] it was 30 µM (≈ 39.9 µg/mL); in assay [16], 30 µM (≈ 39.9 µg/mL); in [17] it was 30 µM (≈ 39.9 µg/mL); in assay [18] it was 30 µM (≈ 39.9 µg/mL); in assay [19] it was 7.5 µM (≈ 9.97 µg/mL). Further, the MIC in assay [20] is 30 µM (≈ 39.9 µg/mL); in assay [21], 15 µM (≈ 19.9 µg/mL); in assay [22], 30 µM (≈ 39.9 µg/mL); in [23] it was 30 µM (≈ 39.9 µg/mL); in assay [24] it was 30 µM (≈ 39.9 µg/mL).
For `CC[C@H](C)[C@H](NC(=O)[C@@H](NC(=O)CN)C(C)C)C(=O)N[C@@H](CCCCN)C(=O)N[C@@H](C)C(=O)N[C@@H](C)C(=O)N[C@@H](CCCCN)C(=O)N[C@@H](CCCCN)C(=O)N[C@H](C(=O)N[C@H](C(=O)N[C@@H](CCCCN)C(=O)N[C@H](C(=O)N[C@@H](CC(C)C)C(=O)N[C@@H](CCCCN)C(=O)N[C@@H](CCCCN)C(=O)N[C@@H](CC(C)C)C(=O)N[C@@H](Cc1ccccc1)C(N)=O)C(C)C)C(C)C)C(C)C` [GVIKAAKKVVKVLKKLF], the MIC in assay [25] is 8.56 µM (≈ 16 µg/mL); in [26], 17.1 µM (≈ 32 µg/mL); in assay [4] it was at least 34.2 µM; in [27] it was 17.1 µM (≈ 32 µg/mL).
